Test results taken from patent US4374841A, “Pyridoxine derivatives, and use in therapeutics” (S. A. Labaz N.V., priority 1980, dated 1983).
Where two headings read alike, the source gives them in different places.

Columns and labels:
mice = assay: Central depressant properties (passage of mice through a light ray); type: in vivo; conditions: Mus musculus, po, 0.5 h, intragastric, 30 minutes after administration, recorded over 15 minutes, dose with depressant action in 50% of the animals, read-out: AD50 (the source's name)
Procedure: D. Central depressant properties
Thirty minutes after the intragastric administration of a dose of the compound to be studied, batches of mice were placed in a container through which a ray of light was projected. By means of a photoelectric cell, a record was made of the number of animals passing through the light ray over a period of 15 minutes. The same test was performed with control animals.
The AD50 was then calculated i.e. the dose of the compound under study which provoked a depressant action in 50% of the animals.

β-receptors = assay: Antiadrenergic properties: anti-β effect (reduction of epinephrine-accelerated heart-rate); type: in vivo; conditions: 10 mg/kg, intravenous, anaesthetized atropinized dog
Procedure: (§1) The purpose of this test was to determine the capacity of the compounds under study to reduce epinephrine-increased blood-pressure (anti-α effect) and epinephrine-accelerated heart-rate (anti-β effect) in the dog previously anaesthetized with pentobarbital (30 mg/kg) and atropinized (1 mg/kg).
The percentage of reduction of the epinephrine-induced acceleration of heart-rate obtained by means of the compounds under study in comparison with the tachycardia previously measured (about 70 beats) was then registered.
(§2) In both cases, the results were expressed as follows: […]
(§3) + for a <50%-reduction of the increase in pressure or cardiac frequency
(§4) ++ for a ≥50-reduction of the increase in pressure or cardiac frequency
(§5) +++ for the almost complete supression of the increase in pressure or cardiac frequency.

Okamoto rat = assay: Hypotension in the Okamoto rat; type: in vivo
Procedure: (b) Hypotension in the Okamoto rat
In this trial, the rats used belonged to a race specifically bred to produce animals having high blood-pressure. The arterial pressure of these rats was determined (about 180 mm.Hg) at the beginning of the test and a dose of the compound to be studied was then administered.
The decrease in arterial pressure was registered every hour for 6 hours after the administration of the compound in question.

α-receptors = assay: Antiadrenergic properties: anti-α effect (reduction of epinephrine-increased blood-pressure); type: in vivo, dog; conditions: intravenous
Procedure: as §1
After that, the dose of epinephrine so determined was administered followed by a dose, by intravenous route, of the compound to be studied. The percentage of reduction of hypertension produced by the compound under study in comparison with the hypertension previously obtained (about 100 mm.Hg) was then registered.
as §2, §3, §4, §5

anaesthetized dog [1] = assay: Reserpine-like properties (cardiac frequency and contractility of the myocardium); type: in vivo; conditions: for change in vivo at 1 mg/kg: Canis lupus familiaris, intravenous, anaesthetized dog
From the text: C. Reserpine-like properties
the increase in cardiac frequency
the increase of (dP/dt) at its maximum, i.e. the increase of the maximum of the derivative of the left ventricular pressure in relation to time.
This derivative thus represented an index of contractility.

anaesthetized dog [2] = assay: Hypotension in the anaesthetized dog; type: in vivo; conditions: 2 mg/kg, intravenous
Procedure: (a) Hypotension in the anaesthetized dog
The hypotensive effect was determined for at least one hour after the intravenous injection of a dose of the compound under study in the dog previously anaesthetized with pentobarbital (30 mg/kg) and atropinized (1 mg/kg).
Arterial pression was registered on a femoral artery.
The results were expressed as follows: […]
++ for a lasting reduction of about 30% in arterial pressure
+ for a short-lived reduction of about 20% in arterial pressure.

Acute toxicity in mice = conditions: mouse, in vivo
From the text: (§6) Acute toxicity tests were also undertaken in rats and mice with compounds of the invention.

Acute toxicity in rats = type: in vivo; conditions: rat, in vivo
From the text: as §6

rats = assay: Acute toxicity in rats; type: in vivo; conditions: intragastric route, fumarate form
From the text: as §6

[3] = ip, intraperitoneal route, sesquioxalate form
[4] = po, intragastric route, sesquioxalate form

In the case of `Cc1ccccc1OCCNCC(O)COc1c(C)ncc(CO)c1CO` (stereo not shown) [Compound A, 4,5-dihydroxymethyl-3-[2-hydroxy-3-(2-methyl-phenoxyethylamino)-propoxy]-2-methyl-pyridine], the ED50 (mice) is reported as 50 mg/kg, the Anti-β effect (β-receptors) is reported as “+ (for a <50%-reduction of the increase in pressure or cardiac frequency)” and the “maximum decrease (arterial pressure)” value (Okamoto rat; 25 mg/kg, oral route, acute treatment, initial about 180 mm.Hg) is reported as 21 mm.Hg. The minimal effective dose (Okamoto rat; chronic treatment, involving one single administration, read-out: found to be active at a dose as low as) was 50 mg/kg, the “activity in acute treatment (ranking)” value (Okamoto rat; oral route, acute treatment) was “the most active in acute treatment” and the minimal effective dose (Okamoto rat; oral route, acute treatment, read-out: provoked hypotension at a dose as low as) was 25 mg/kg. The Anti-α effect (α-receptors; 10 mg/kg, anaesthetized atropinized dog, epinephrine) was “+++”, the “α-antiadrenergic properties at a dose as low as” value (α-receptors; lowest active dose, dog, sesquioxalate) was 2 mg/kg and the change in vivo at 1 mg/kg (anaesthetized dog [1]; (dP/dt) maximum, read-out: increase in the contractility of the myocardium) was 10 to 30%. The change in vivo at 1 mg/kg (anaesthetized dog [1]; read-out: increase in cardiac frequency) was 10 to 30%, the “effects on cardiac frequency and contractility after reserpine” value (anaesthetized dog [1]; dog having previously received reserpine) was “suppressed” and the “Decrease in arterial pressure” value (anaesthetized dog [2]) was “++ (for a lasting reduction of about 30% in arterial pressure)”.

For `COc1ccccc1OCCNCC(O)COc1c(C)ncc(CO)c1CO` (stereo not shown) [drawing 42], the LD50 (Acute toxicity in mice; po, intragastric route (salt form not stated)) was > 5000 mg/kg and the LD50 (Acute toxicity in rats; iv, intravenous route (salt form not stated)) was 245 mg/kg.

`Cc1ccccc1OCCNCC(O)COc1c(C)ncc(CO)c1CO` (stereo not shown) [drawing 41, 4,5-Dihydroxymethyl-3-[2-hydroxy-3-(2-methyl-phenoxyethylamino)-propoxy]-2-methyl-pyridine] gave an LD50 (Acute toxicity in mice; intravenous route, sesquioxalate form) of 118 mg/kg, an LD50 (Acute toxicity in mice; [3]) of 290 mg/kg and an LD50 (Acute toxicity in mice; [4]) of 700 mg/kg. The LD50 (Acute toxicity in rats; [3]) was 320 mg/kg, the LD50 (Acute toxicity in rats; iv, fumarate form) was 200 mg/kg and the LD50 (Acute toxicity in rats; iv, sesquioxalate form) was 170 mg/kg. The LD50 (Acute toxicity in rats; [4]) was 2200 mg/kg and the LD0 (rats) was > 2500 mg/kg.
